Patent publication US8722013B2, “Use of R(+)-alpha-lipoic acid for cryptogenic neuropathy” (Encrypta GmbH, priority 2007, dated 2014)
Structures can show the parent of a compound that is named as a salt.

Assays:
[1] = system: uremic neuropathy; conditions: cited from earlier work
[2] = system: diabetic polyneuropathy; conditions: cited from earlier work
[3] = system: cryptogenic neuropathy; experiment: Case reports: patients with cryptogenic neuropathy treated with R-LA; format: in vivo, human
Experimental: A patient with cryptogenic neuropathy was treated with an agent according to the present invention. For that purpose a daily oral dose of 50 mg of R-LA (s.d.) was given over a time period of 8 weeks in a customary multivitamin presentation form. The disease is presented by a loss of sensory perception in the feet and a severe impairment of perspiration.
A patient with cryptogenic neuropathy was treated with an agent according to the present invention. For that purpose a daily oral dose of 50 mg of R-LA (s.d.) was given over a time period of 12 weeks.
A patient with cryptogenic neuropathy was treated with an agent according to the present invention. For that purpose 50 mg of R-LA (s.d.) in an oral multivitamin preparation together with γ-linolenic acid was given. The administration was at first 2 times a day for 6 weeks and then 1 time a day. The lost sensation in the tips of the fingers and toes (Semmes Weinstein monofilament) recovered after 4 weeks.
A patient with cryptogenic neuropathy was treated with an agent according to the present invention. For that purpose a daily oral dose of 100 mg of R-LA as Na salt was given over a time period of 8 weeks. The incontinence and also the control over the bladder were improved after 3 weeks.
A patient with cryptogenic neuropathy was treated with an agent according to the present invention. For that purpose at first a dose of 300 mg of R-LA (Na salt) was given 1 time a day over a time period of 2 weeks and then a dose of 100 mg was given 1 time a day over a time period of 6 weeks. Due to inconsequent taking of the dose on average the agent was only administered every second day. The dryness of the eyes has not changed during the first 3 weeks, but after 4 weeks the use of eye drops was reduced.
A patient with cryptogenic neuropathy was treated with an agent according to the present invention. For that purpose at first a daily oral dose of 100 mg of R-LA was given over a time period of one week and then a reduction to a dose of 50 mg for 6 weeks with continuous co-medication of gabapentin followed.
A patient with cryptogenic neuropathy was treated with an agent according to the present invention. For that purpose at first a daily oral dose of 100 mg of R-LA was given over a time period of two weeks. Then a reduction to a dose of 50 mg followed which was continued over 3 weeks. Subsequently the treatment was continued with the administration of 25 mg over further 3 weeks. […] Sharp pain which occurred occasionally was unchanged.
A patient with cryptogenic neuropathy was treated with an agent according to the present invention. For that purpose at first a daily oral dose of 100 mg of R-LA was given over a time period of four weeks. Then an anti-oxidative multivitamin preparation together with 50 mg of R-LA was given over 4 weeks.
A patient with cryptogenic neuropathy was treated with an agent according to the present invention. For that purpose at first a daily oral dose of 50 mg of R-LA was given over a time period of six weeks. Then an anti-oxidative multivitamin preparation without R-LA was given orally over 4 weeks. The patient suffered from numbness and the loss of sensory perception in the lower limbs. Due to a possible immunologic background ibuprofen was given as a long-term medication. […] The heart pains during stair climbing disappeared.
A patient with cryptogenic neuropathy was treated with an agent according to the present invention. For that purpose a daily dose of 300 mg of R-LA was given over a time period of four weeks together with a continued administration of a vitamin B-combination medication. […] Stomach pain and feeling of abdominal fullness were improved at the end of that period.
A patient with cryptogenic neuropathy was treated with an agent according to the present invention. For that purpose a daily oral dose of 400 mg of R-LA (K salt) was given over a time period of one week. […] 3 months later a formulation of 100 mg (Na salt) was given. […]

[4] = system: cryptogenic neuropathy; conditions: in vivo; cited from earlier work
[5] = Example 11, 400 mg daily oral (K salt) over one week
[6] = Example 1, 50 mg daily oral (s.d.) in multivitamin presentation form, after 8 weeks
[7] = Example 9, 50 mg daily oral over six weeks, ibuprofen long-term medication

For O=C(O)CCCCC1CCSS1 (racemic) [rac-LA, 5-(1,2-dithiolan-3-yl)valeric acid], the “result of first clinical trial” value [1] is given as “negative results”, the “efficacy in controlled clinical trials” value ([2]; human, in vivo) is given as “negative” and the “efficacy in first short-time pilot study (ALADIN Study)” value ([2]; i.v. treatment, 3-week multicentre randomized controlled trial) is given as “verified the historic impressions of the efficacy”. For the same compound, the neuropathic deficits ([2]; oral long-term therapy) was “appeared to deteriorate” and the “efficacy in pivotal placebo-controlled double-blind multicentre trials (ALADIN II, ALADIN III)” value ([2]; short-term use (i.v.) or long-term use (p.o.)) was “could not be reproduced”.

With O=C(O)CCCC[C@@H]1CCSS1 [R-LA (K salt)] the “hyperhidrosis at the face” value [3, 5] was “not disappeared” and the “sensory perception in the lower limbs” value [3, 5] was “improved from severe to moderate”.

With O=C(O)CCCC[C@@H]1CCSS1 [R-LA (Na salt)] the “incontinence and control over the bladder” value ([3]; Example 4, 100 mg daily oral as Na salt, after 3 weeks) was “improved”, the chronic obstipation ([3]; Example 4, 100 mg daily oral as Na salt, after 5 weeks) was “no longer a problem” and the stool frequency ([3]; Example 4, 100 mg daily oral as Na salt, after 5 weeks, 2 to 3 times a week before) was 5 times a week. The “dryness of the eyes” value ([3]; Example 5, 300 mg 1 time a day for 2 weeks, then 100 mg for 6 weeks (on average taken every second day), first 3 weeks) was “not changed”, the “feeling of burning in the feet” value ([3]; Example 5, 300 mg for 2 weeks, then 100 mg, after 3 weeks) was “reduced after 3 weeks (from severe to moderate)” and the “use of eye drops” value ([3]; Example 5, 300 mg for 2 weeks, then 100 mg, after 4 weeks) was “reduced”. For the same compound, the “feeling of burning in the feet” value ([3]; Example 5, during the weeks following week 3) was “unchanged”.

In the case of O=C(O)CCCC[C@@H]1CCSS1 [R-LA, (R)-5-(1,2-dithiolan-3-yl)valeric acid], the perspiration [3, 6] is reported as “moderately improved”, the “sensory perception in the feet” value [3, 6] is reported as “moderately improved” and the “feeling of burning and tingling in the feet and hands” value ([3]; Example 2, 50 mg daily oral (s.d.) over 12 weeks) is reported as “improved moderately”. The “symptoms after the termination of the treatment” value ([3]; Example 2, after 12 weeks of 50 mg daily oral) was “became worse again”, the “lost sensation in the tips of the fingers and toes (Semmes Weinstein monofilament)” value ([3]; Example 3, 50 mg in oral multivitamin preparation with γ-linolenic acid, 2 times a day, after 4 weeks) was “recovered” and the “function improvement on halving of the dose” value ([3]; Example 3, 2 times a day for 6 weeks, then 1 time a day) was “not influenced”. For the same compound, the “neurological pain in the feet” value ([3]; Example 6, 100 mg daily oral for one week, then 50 mg for 6 weeks, co-medication of gabapentin) was “unchanged”, the “perception of pain stimulus with a needle at the feet” value ([3]; Example 6, 100 mg for one week, then 50 mg, gabapentin co-medication, after 3 weeks, not perceived at first) was “perceived moderately” and the “feeling of burning in the feet” value ([3]; Example 7, 100 mg daily oral for two weeks, then 50 mg, after 3 weeks) was “improved from severe to moderate”. For the same compound, the “sharp pain which occurred occasionally” value ([3]; Example 7, 100 mg for 2 weeks, 50 mg for 3 weeks, 25 mg for 3 weeks) was “unchanged”, the “feeling of burning in the feet” value ([3]; Example 7, 100 mg for two weeks, then 50 mg for 3 weeks, after 5 weeks) was “disappeared completely” and the “feeling of burning in the feet” value ([3]; Example 8, 100 mg daily oral, after 2 weeks) was “improved from severe to moderate”. The “feeling of burning in the feet” value ([3]; Example 8, 100 mg for four weeks, then anti-oxidative multivitamin preparation with 50 mg, after 6 weeks) was “became worse again”, the “heart pains during stair climbing” value [3, 7] was “disappeared” and the numbness [3, 7] was “unchanged”. The “sensory perception in the lower limbs” value ([3]; Example 9, 50 mg daily oral, ibuprofen long-term medication, after 3 weeks, then stable) was “improved from severe to moderate”, the “sensory perception after termination of R-LA” value ([3]; Example 9, 3 weeks after the termination of the administration) was “became worse again” and the “perception of pain stimulus at the feet by means of a sharp needle” value ([3]; Example 10, 300 mg daily with vitamin B-combination medication, after 2 weeks) was “perceived again”. For the same compound, the “stomach pain and feeling of abdominal fullness” value ([3]; Example 10, 300 mg daily with vitamin B-combination medication, at the end of four weeks) was “improved”, the “dryness at the feet” value ([3]; Example 12, 100 mg twice a day, after 2 weeks) was “improved” and the “dryness at the hands” value ([3]; Example 12, 100 mg twice a day, after 3 weeks) was “improved”.

For C[C@]12CCC(=O)C=C1CC[C@@H]1[C@@H]2C(=O)C[C@@]2(C)[C@H]1CC[C@]2(O)C(=O)CO [cortisone], the “outcome of therapy of cryptogenic neuropathy” value [4] is given as “unsuccessful”.
